Measured values from paper doi:10.1101/2023.09.07.556657v1 (biorxiv, 2023).

Biological target: T1, Cf-SGBP-CBMxxIV (Christiangramia forsetii, UniProt A0M709)
T1 sequence (A0M709 740-904): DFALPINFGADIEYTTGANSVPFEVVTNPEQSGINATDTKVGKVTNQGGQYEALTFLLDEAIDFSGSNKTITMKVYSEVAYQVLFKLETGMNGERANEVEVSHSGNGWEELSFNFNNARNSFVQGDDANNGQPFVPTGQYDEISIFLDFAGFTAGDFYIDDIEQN
Assay: isothermal titration calorimetry
Type: binding
Details: 293.15 K, pH 7.8, 10 mM MOPS, 100 mM NaCl; single-site model

SMILES	Ka
OC[C@H]1O[C@@H](O[C@@H]2[C@@H](O)[C@H](O[C@@H]3[C@@H](O)[C@H](O[C@@H]4[C@@H](O)[C@H](O[C@H]5[C@H](O)[C@@H](CO)OC(O)[C@@H]5O)O[C@H](CO)[C@H]4O)O[C@H](CO)[C@H]3O)O[C@H](CO)[C@H]2O)[C@H](O)[C@@H](O)[C@@H]1O (some centres unmarked) [DP5, laminaripentaose]	1.39 (± 0.07) x10^4
OC[C@H]1O[C@@H](O[C@@H]2[C@@H](O)[C@H](O[C@@H]3[C@@H](O)[C@H](O[C@@H]4[C@@H](O)[C@H](O[C@@H]5[C@@H](O)[C@H](O[C@@H]6[C@@H](O)[C@H](O[C@H]7[C@H](O)[C@@H](CO)OC(O)[C@@H]7O)O[C@H](CO)[C@H]6O)O[C@H](CO)[C@H]5O)O[C@H](CO)[C@H]4O)O[C@H](CO)[C@H]3O)O[C@H](CO)[C@H]2O)[C@H](O)[C@@H](O)[C@@H]1O (some centres unmarked) [DP7, laminariheptaose]	1.87 (± 0.17) x10^4
